Assay results reported in PubChem BioAssay (NCI).
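Assay format: 96-well plates, 48-hour exposure. TGI marks complete inhibition of growth.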

Tests used:
Experiment in all cases: NCI tumour cell line growth inhibition, 48 h
A498 renal = test system: A498 renal
A549 NSCLC = test system: A549 NSCLC
CAKI-1 renal = test system: CAKI-1 renal
CCRF-CEM leukemia = test system: CCRF-CEM leukemia
COLO 205 colon = test system: COLO 205 colon
DLD-1 colon = test system: DLD-1 colon
DMS 114 small cell lung = test system: DMS 114 small cell lung
DMS 273 small cell lung = test system: DMS 273 small cell lung
EKVX NSCLC = test system: EKVX NSCLC
HCC-2998 colon = test system: HCC-2998 colon
HCT-116 colon = test system: HCT-116 colon
HCT-15 colon = test system: HCT-15 colon
HL-60(TB) leukemia = test system: HL-60(TB) leukemia
HOP-18 NSCLC = test system: HOP-18 NSCLC
HOP-62 NSCLC = test system: HOP-62 NSCLC
HOP-92 NSCLC = test system: HOP-92 NSCLC
HT29 colon = test system: HT29 colon
IGROV1 ovarian = test system: IGROV1 ovarian
K-562 leukemia = test system: K-562 leukemia
KM12 colon = test system: KM12 colon
KM20L2 colon = test system: KM20L2 colon
LOX IMVI melanoma = test system: LOX IMVI melanoma
M19-MEL melanoma = test system: M19-MEL melanoma
MALME-3M melanoma = test system: MALME-3M melanoma
MCF7 breast = test system: MCF7 breast
MOLT-4 leukemia = test system: MOLT-4 leukemia
NCI-H226 lung = test system: NCI-H226 lung
NCI-H23 lung = test system: NCI-H23 lung
NCI-H460 lung = test system: NCI-H460 lung
NCI-H522 lung = test system: NCI-H522 lung
NCI/ADR-RES ovarian = test system: NCI/ADR-RES ovarian
OVCAR-3 ovarian = test system: OVCAR-3 ovarian
OVCAR-4 ovarian = test system: OVCAR-4 ovarian
OVCAR-5 ovarian = test system: OVCAR-5 ovarian
OVCAR-8 ovarian = test system: OVCAR-8 ovarian
P388 leukemia = test system: P388 leukemia
P388/ADR leukemia = test system: P388/ADR leukemia
RPMI-8226 leukemia = test system: RPMI-8226 leukemia
RXF 393 renal = test system: RXF 393 renal
SF-268 CNS = test system: SF-268 CNS
SF-295 CNS = test system: SF-295 CNS
SF-539 CNS = test system: SF-539 CNS
SK-MEL-2 melanoma = test system: SK-MEL-2 melanoma
SK-MEL-28 melanoma = test system: SK-MEL-28 melanoma
SK-MEL-5 melanoma = test system: SK-MEL-5 melanoma
SK-OV-3 ovarian = test system: SK-OV-3 ovarian
SN12C renal = test system: SN12C renal
SN12K1 renal = test system: SN12K1 renal
SNB-19 CNS = test system: SNB-19 CNS
SNB-75 CNS = test system: SNB-75 CNS
SNB-78 CNS = test system: SNB-78 CNS
SW-620 colon = test system: SW-620 colon
U251 CNS = test system: U251 CNS
UACC-257 melanoma = test system: UACC-257 melanoma
UACC-62 melanoma = test system: UACC-62 melanoma
UO-31 renal = test system: UO-31 renal
XF 498 CNS = test system: XF 498 CNS

CN(C)CCNC(=O)c1cccc2c1C(=O)c1ccccc1C2=O
TGI (A498 renal): > 100 µM | TGI (A549 NSCLC): > 100 µM | TGI (CAKI-1 renal): > 100 µM | TGI (CCRF-CEM leukemia): 98.9 µM | TGI (COLO 205 colon): 34.2 µM | TGI (DLD-1 colon): > 77.6 µM | TGI (DMS 114 small cell lung): 32.8 µM | TGI (DMS 273 small cell lung): 56.6 µM | TGI (EKVX NSCLC): > 100 µM | TGI (HCC-2998 colon): > 91.6 µM | TGI (HCT-116 colon): 66.5 µM | TGI (HCT-15 colon): > 84.2 µM | TGI (HL-60(TB) leukemia): 57.8 µM | TGI (HOP-18 NSCLC): > 100 µM | TGI (HOP-62 NSCLC): > 31.6 µM | TGI (HOP-92 NSCLC): > 73.7 µM | TGI (HT29 colon): > 86.6 µM | TGI (IGROV1 ovarian): > 76.5 µM | TGI (K-562 leukemia): 54.5 µM | TGI (KM12 colon): > 100 µM | TGI (KM20L2 colon): 77 µM | TGI (LOX IMVI melanoma): > 75.1 µM | TGI (M19-MEL melanoma): 41.7 µM | TGI (MALME-3M melanoma): 28.1 µM | TGI (MCF7 breast): > 79 µM | TGI (MOLT-4 leukemia): > 71.7 µM | TGI (NCI-H226 lung): > 100 µM | TGI (NCI-H23 lung): 50 µM | TGI (NCI-H460 lung): 85.8 µM | TGI (NCI-H522 lung): 69.1 µM | TGI (NCI/ADR-RES ovarian): 75.5 µM | TGI (OVCAR-3 ovarian): 52.4 µM | TGI (OVCAR-4 ovarian): 88.8 µM | TGI (OVCAR-5 ovarian): > 100 µM | TGI (OVCAR-8 ovarian): 88.3 µM | TGI (P388 leukemia): 43.9 µM | TGI (P388/ADR leukemia): 48.4 µM | TGI (RPMI-8226 leukemia): > 100 µM | TGI (RXF 393 renal): > 100 µM | TGI (SF-268 CNS): > 100 µM | TGI (SF-295 CNS): > 100 µM | TGI (SF-539 CNS): > 100 µM | TGI (SK-MEL-2 melanoma): > 90.5 µM | TGI (SK-MEL-28 melanoma): > 100 µM | TGI (SK-MEL-5 melanoma): 40.2 µM | TGI (SK-OV-3 ovarian): > 100 µM | TGI (SN12C renal): > 100 µM | TGI (SN12K1 renal): > 100 µM | TGI (SNB-19 CNS): > 100 µM | TGI (SNB-75 CNS): > 100 µM | TGI (SNB-78 CNS): > 86.6 µM | TGI (SW-620 colon): > 91.3 µM | TGI (U251 CNS): > 100 µM | TGI (UACC-257 melanoma): 54.4 µM | TGI (UACC-62 melanoma): 47.9 µM | TGI (UO-31 renal): > 100 µM | TGI (XF 498 CNS): > 100 µM
